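Assay format: 96-well plates, 48-hour exposure. Here, GI50 denotes the concentration required for 50% inhibition of growth. TGI is the concentration that stops growth completely.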
How the values were obtained:
Assay in all cases: NCI tumour cell line growth inhibition, 48 h
[1] = test system: DMS 114 small cell lung
[2] = test system: DMS 273 small cell lung
[3] = test system: KM20L2 colon
[4] = test system: LXFL 529 NSCLC
[5] = test system: M19-MEL melanoma
[6] = test system: SNB-78 CNS
[7] = test system: XF 498 CNS
[8] = test system: RXF-631 renal
[9] = test system: MDA-N
[10] = test system: P388 leukemia
[11] = test system: P388/ADR leukemia
[12] = test system: SN12K1 renal

Row | Compound | TGI [1] [µM] | TGI [2] [µM] | TGI [3] [µM] | TGI [4] [µM] | TGI [5] [µM] | TGI [6] [µM] | TGI [7] [µM] | TGI [8] [µM] | GI50 [3] [µM] | GI50 [4] [µM] | TGI [9] [µM] | GI50 [9] [µM] | TGI [10] [µM] | TGI [11] [µM] | TGI [12] [µM]
1 | C=C1C(=O)O[C@H](c2ccoc2)C[C@@H]1[C@@]1(C)CCCC2(C)C(=O)OCC21 (stereo partly drawn) | > 100 | > 100 | > 100 | > 100 | > 100 | > 100 | > 100 | – | – | – | – | – | – | – | –
2 | CC(=O)OCC1OC(n2cccnc2=O)C(OC(C)=O)C1OC(C)=O (stereo not drawn) | > 100 | > 100 | > 100 | > 100 | > 100 | > 100 | > 100 | > 100 | – | – | – | – | – | – | –
3 | CCOC(=O)C1=C(C)NC(=O)NC1c1ccc(OC)cc1OC (stereo not drawn) | > 100 | > 100 | > 100 | > 100 | > 100 | > 100 | > 100 | – | – | – | – | – | – | – | –
4 | CC1OC(n2cc(C(F)(F)F)c(=O)[nH]c2=O)C=CC1=O (stereo not drawn) | – | – | 48.1 | 31.6 | 43.3 | 31.5 | 30.3 | 25.3 | – | – | – | – | – | – | –
5 | COC(=O)C1=CC2C(=O)OC1C1C(=O)NC(=O)C21 (stereo not drawn) | > 100 | > 100 | > 100 | > 100 | > 100 | > 100 | > 100 | > 100 | – | – | – | – | – | – | –
6 | CC(=O)[CH-]C(=O)c1ccccc1.CC(=O)[CH-]C(=O)c1ccccc1.Cl.[O-]c1ccnc2ccccc12.[O-]c1ccnc2ccccc12.[Ti+4] | – | – | > 100 | > 100 | – | – | – | – | > 100 | > 100 | – | – | – | – | –
7 | CC1(C)C(=O)OC(n2cc(F)c(=O)[nH]c2=O)C1=O (stereo not drawn) | > 100 | – | > 100 | > 100 | > 100 | > 100 | > 100 | – | – | – | – | – | – | – | –
8 | Cc1cccc(NC(=O)C(=O)C(C2OC(=O)c3ccccc32)[N+](=O)[O-])c1C (stereo not drawn) | 10.3 | 10.3 | 42.7 | 20.3 | 3.91 | > 100 | 18.7 | 33.7 | – | – | – | – | – | – | –
9 | COc1cc(OCc2ccccc2)c2c(CCC(=O)O)cc(=O)oc2c1 (tested in a mixture with another compound) | – | – | – | – | – | – | – | – | – | – | > 100 | – | – | – | –
10 | O=C(/C=C/c1ccc(Cl)c(Cl)c1)c1ccccc1Cl | 11.2 | 14.5 | 23.7 | 19.6 | 17.2 | 32.3 | 33.3 | 31.4 | – | – | – | – | – | – | –
11 | c1ccc(C2=NOC3C4CCC(C4)C23)cc1 (stereo not drawn) | > 100 | > 100 | – | > 100 | > 100 | > 100 | – | – | – | – | – | – | – | – | –
12 | Cc1ccc(N(C=O)c2c([N+](=O)[O-])cc([N+](=O)[O-])c3c2=[N+]([O-])CN=3)cc1 | – | – | – | – | – | – | – | – | – | – | > 100 | – | – | – | –
13 | CC(=O)OC1CCC2OOC1O2 (stereo not drawn) | > 100 | > 100 | > 100 | – | > 100 | > 100 | – | – | – | – | – | – | – | – | –
14 | C[C@]12CC[C@H](O[C@@H]3O[C@H](CO[C@@H]4O[C@H](CO)[C@@H](O)[C@H](O)[C@H]4O)[C@@H](O)[C@H](O)[C@H]3O)C[C@@H]1CC[C@@H]1[C@@H]2CC[C@]2(C)[C@@H](C3=CC(=O)OC3)CC[C@]12O | – | – | – | – | – | – | – | – | – | – | 93.5 | – | – | – | –
15 | Cc1ccc(S(=O)(=O)OCOS(=O)(=O)c2ccc(C)cc2)cc1 | > 100 | > 100 | > 100 | > 100 | > 100 | – | – | – | – | – | – | – | – | – | –
16 | COc1ccc(Oc2nc3cc(N)cc(N)c3nc2-c2ccccc2)cc1 | – | – | – | – | – | – | – | – | – | – | > 100 | 35.2 | – | – | –
17 | CCOC(=O)C1=C(OC(OCC)C([Se]c2ccccc2)C(C)C)CCC1 (stereo not drawn) | – | 20 | 63.3 | 29.5 | 34.9 | 38.8 | 26.4 | – | – | – | – | – | – | – | –
18 | CNC(=O)ON(C(C)=O)C(=O)NC | 126 | 241 | 324 | – | 401 | 384 | 131 | – | – | – | 73.6 | > 85.8 | 62.4 | 111 | 192
19 | N#C/C(=C\c1c(O)cc(O)cc1O)C(N)=O | > 100 | > 100 | > 100 | > 100 | – | > 100 | > 100 | > 100 | – | – | – | – | – | – | –
20 | O/N=C(\CC(O)(C(F)(F)F)C(F)(F)F)c1cccs1 | – | – | – | – | – | – | – | – | – | – | > 10 | – | – | – | –

Row | Compound | TGI [1] [µM] | TGI [2] [µM] | TGI [3] [µM] | TGI [4] [µM] | TGI [5] [µM] | TGI [6] [µM] | TGI [7] [µM] | TGI [8] [µM] | GI50 [3] [µM] | GI50 [4] [µM] | TGI [9] [µM] | GI50 [9] [µM] | TGI [10] [µM] | TGI [11] [µM] | TGI [12] [µM]
21 | CCC12C=CCN(CCc3c([nH]c4ccccc34)/C=C\1)C2 (stereo not drawn) | > 100 | > 100 | > 100 | > 100 | > 100 | – | > 100 | > 100 | – | – | – | – | – | – | –
22 | CN(C)NC(=O)/C(=C/c1ccc(Cl)cc1)NC(=O)c1ccccc1 | – | > 100 | > 100 | > 100 | > 100 | – | > 100 | > 100 | – | – | – | – | – | – | –
23 | CC(=Nc1ccc(N(C)C)cc1)c1ccccc1 | – | – | – | – | – | – | – | – | – | – | 52.2 | – | – | – | –
24 | O=C(NC1CC1)c1c(O)[nH]c(=S)[nH]c1=O | > 100 | – | > 100 | > 100 | > 100 | > 100 | – | > 100 | – | – | – | – | – | – | –
25 | COC(=O)c1c(O)ccc(O)c1C(C(C)=O)C(C)=O | > 100 | > 100 | – | > 100 | > 100 | > 100 | > 100 | – | – | – | – | – | – | – | –
26 | CCOC(=O)c1cc(=O)n(C)c(=O)n1C | – | > 100 | > 100 | > 100 | > 100 | > 100 | > 100 | – | – | – | – | – | – | – | –
27 | Cc1ccccc1NC(=O)Cc1nc2ccccc2s1 | – | 37.6 | 36.6 | 29.9 | – | 32.6 | 27.6 | 32.3 | – | – | – | – | – | – | –
28 | Nc1cccc2c1-c1c(cccc1[N+](=O)[O-])C2=O | > 100 | > 100 | > 100 | – | > 100 | > 100 | – | – | – | – | – | – | – | – | –
29 | CC(C)(C)[Si](C)(C)OCC1OC(n2cnc3c(=O)[nH]cnc32)CC1O (stereo not drawn) | – | – | – | – | – | – | – | – | – | – | > 100 | – | – | – | –
30 | N#C/C(=C\c1cc(O)c(O)c(O)c1)C(N)=O | > 100 | > 100 | > 100 | > 100 | > 100 | > 100 | > 100 | > 100 | – | – | > 100 | – | – | – | –
31 | Cn1[nH]cc2ccc3nc4ccccc4c(=O)c3c21 | > 100 | > 100 | > 100 | > 100 | 46.8 | > 83.9 | – | > 66.1 | – | – | – | – | – | – | –
32 | CC1(C)C(N2CCOCC2)CS1(=O)=O (stereo not drawn) | – | – | – | – | – | – | – | – | – | – | > 10 | – | – | – | –
33 | C/C=C/C(=O)Oc1cccc2cccnc12 | 16.8 | 46.9 | > 35.5 | > 100 | 38.6 | > 100 | 55.2 | – | – | – | – | – | – | – | –
34 | C/C=C(\N=C=S)C(=O)OC1C(COC(C)=O)OC([C@]2(O)CC(=O)C(=N)C(C(=O)O)=C2O)C(O)C1OC1CC(OC)C(O)([C@@H](C)OC(=O)[C@@H](C)CC)C(C)O1 (stereo partly drawn) | 14.9 | 32.1 | 18.5 | 4.16 | 6.24 | 26.4 | 5.92 | – | – | – | 26.5 | – | – | – | –
35 | CN(C)NC1=C([N+](=O)[O-])C=NN(c2ccccc2)C1 | 3.33 | 3.18 | 3.54 | 3.03 | 3.23 | 4.3 | 3.93 | 3.33 | – | – | – | – | – | – | –
36 | O=C(O)c1ccc2c(c1)C(=O)N(c1ccc(S(=O)(=O)c3ccc(N4C(=O)c5ccc(C(=O)O)cc5C4=O)cc3)cc1)C2=O | > 100 | > 100 | > 100 | > 100 | > 100 | > 100 | > 100 | – | – | – | – | – | – | – | –
37 | Brc1ccccc2cc(-c3ccccc3)nc1-2 | 6.12 | 16.4 | – | 3.25 | – | 6.91 | 3.44 | > 53.3 | – | – | 29.4 | – | – | – | –
38 | O=c1nc2sc3ccccc3c(=O)n2[nH]1 | – | > 100 | > 100 | > 100 | > 100 | > 100 | > 100 | > 100 | – | – | – | – | – | – | –
39 | COc1ccc(CN2C(=O)[C@@H]3Cc4c(OC)c(C)c(OC)c(OC)c4[C@H](/C2=C\c2cc(OC)c(OC)c(C)c2OC)N3C(=O)OC(C)C)cc1 | > 100 | > 100 | > 100 | > 100 | > 100 | – | – | > 100 | – | – | – | – | – | – | –
